The target in one data set is T1, cPLA2 (Homo sapiens, UniProt P47712).
T1 sequence (P47712 1-749): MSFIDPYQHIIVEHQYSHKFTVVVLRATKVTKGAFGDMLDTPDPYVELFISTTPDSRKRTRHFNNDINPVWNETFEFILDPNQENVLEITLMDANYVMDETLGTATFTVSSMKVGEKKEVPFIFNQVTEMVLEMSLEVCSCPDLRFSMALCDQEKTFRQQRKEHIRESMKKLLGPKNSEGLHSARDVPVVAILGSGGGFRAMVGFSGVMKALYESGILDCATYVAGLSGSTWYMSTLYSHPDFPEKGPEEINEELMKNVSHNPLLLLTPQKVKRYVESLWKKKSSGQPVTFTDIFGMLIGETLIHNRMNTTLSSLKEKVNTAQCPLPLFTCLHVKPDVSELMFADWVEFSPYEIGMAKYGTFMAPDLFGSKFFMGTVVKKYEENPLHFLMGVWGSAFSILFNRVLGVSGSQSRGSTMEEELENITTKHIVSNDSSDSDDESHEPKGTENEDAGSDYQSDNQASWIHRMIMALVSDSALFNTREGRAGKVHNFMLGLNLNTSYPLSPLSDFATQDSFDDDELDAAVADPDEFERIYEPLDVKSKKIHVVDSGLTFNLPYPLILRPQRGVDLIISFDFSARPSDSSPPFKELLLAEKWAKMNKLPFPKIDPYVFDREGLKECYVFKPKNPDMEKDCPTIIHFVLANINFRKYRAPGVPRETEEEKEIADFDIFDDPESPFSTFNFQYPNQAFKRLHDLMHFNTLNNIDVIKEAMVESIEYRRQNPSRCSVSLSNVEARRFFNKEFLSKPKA
The experiment in a line: Coumarin assay (hydrolysis of 7-hydroxycoumarinyl 6-heptenoate). Type of data set: biochemical. As to conditions: 60 μM 7-hydroxycoumarinyl 6-heptenoate, 4 μg cPLA2, pH 7.5.

Data set [1] deals with Human platelet aggregation. The experiment in a line: Platelet Function Analyzer (PFA-100) study, whole human blood in vitro. As to conditions: for prolongation of PFA-100 closure time: Collagen/Epinephrine cartridges, 10 minutes incubation, DMSO vehicle 125±13.9 seconds. Type of data set: cell-based. Here is the method: Platelet Function Analyzer (PFA-100®) Study
Human platelet aggregation was also studied using the platelet function analyzer (PFA-100®). […] Tubes were inverted 5 times and the blood was transferred to 15 ml polypropylene conical tubes. […] The manufacturers protocol was followed for the PFA-100 using Collagen/Epinephrine cartridges (0.5% DMSO alone in whole blood gave closure times of 125±13.9 seconds). Maximum closure time is 300 seconds, as set by the manufacturer. […] The blood from two mice was pooled to obtain enough blood (800 μl minimum) to conduct each assay.

The next data set has as its system platelet aggregation. The data set can be described thus: PFA-100 ex vivo platelet aggregation of chow dosed mice. In kind it is in vivo. Particulars: ApoE knockout mice, 3.3 mg/g chow for 2 days; control 142±16, p<0.02.
The nature of data set [2]: Exposure after chow dosing in mice. Particulars: mouse, in vivo, oral; ApoE knockout mice, chow diet supplemented at 3.3 mg/g chow.

Experimental findings from patent publication US20080009485A1, “Methods for the use of inhibitors of cytosolic phospholipase A2 in the treatment of thrombosis” (Wyeth, priority 2006, published 2008) are described below.

Procedure for cPLA2: Inhibitors were mixed with 200 μL assay buffer (80 mM Hepes, pH 7.5, 1 mM EDTA) containing 60 μM 7-hydroxycoumarinyl 6-heptenoate. The reaction was initiated by adding 4 μg cPLA2 in 50 μL assay buffer. Hydrolysis of the 7-hydroxycounarimyl 6-heptenoate ester was monitored in a fluorometer by exciting at 360 nm and monitoring emission at 460 nm. Enzyme activity is proportional to the increase in emission at 460 nm per minute. In the presence of a cPLA2 inhibitor, the rate of increase is less.

As a reminder, the melting point is the temperature, or range, at which the solid turns liquid. Compound `CC(C)(Cc1ccc(S(=O)(=O)CCc2c(CCNS(=O)(=O)Cc3ccc(Cl)c(Cl)c3)n(C(c3ccccc3)c3ccccc3)c3ccc(Cl)cc23)cc1)C(=O)O` [Example 298, 3-[4-({2-[1-benzhydryl-5-chloro-2-(2-{[(3,4-dichlorobenzyl)sulfonyl]amino}ethyl)-1H-indol-3-yl]ethyl}sulfonyl)phenyl]-2,2-dimethylpropanoic acid] registered a melting point of 207 to 208 °C. What is called IC50 is the concentration at which inhibition is half-maximal. A lower IC50 goes with higher potency. Compound `O=C(O)c1ccc(OCCc2c(CCNS(=O)(=O)CCN3CC4CC3CO4)n(C(c3ccccc3)c3ccccc3)c3ccc(Cl)cc23)cc1` (stereo not shown) [Example 251, 4-(2-{1-benzhydryl-5-chloro-2-[2-({[2-(2-oxa-5-azabicyclo[2.2.1]hept-5-yl)ethyl]sulfonyl}amino)ethyl]-1H-indol-3-yl}ethoxy)benzoic acid] gave an IC50 against cPLA2 of 1500 nM. At cPLA2, `NCc1ccccc1S(=O)(=O)NCCc1c(CCCc2ccc(C(=O)O)cc2)c2cc(Cl)ccc2n1C(c1ccccc1)c1ccccc1` [Example 156, 4-(3-{2-[2-({[2-(aminomethyl)phenyl]sulfonyl}amino)ethyl]-1-benzhydryl-5-chloro-1H-indol-3-yl}propyl)benzoic acid] displayed an IC50 of 160 nM. Against the preceding compound, the IC50 is about 9.4-fold lower. With `CC(=O)Oc1ccccc1C(=O)O` [aspirin, reference compound], the “prolongation of PFA-100 closure time” value in data set [1] was “able to prolong the closure time to varying extents”. In turn, “2-{2-[1-Benzhydryl-5-chloro-2-(2-phenylmethanesulfonyl-amino-ethyl)-1H-indol-3-yl]-ethoxy}-benzoic acid [Example 283]” gave an IC50 on cPLA2 of 500 nM. Usually Cmax stands for the peak of the concentration-time curve. `O=C(O)c1ccc(CCCc2c(CCNS(=O)(=O)Cc3ccc(Cl)c(Cl)c3)n(C(c3ccccc3)c3ccccc3)c3ccc(Cl)cc23)cc1` [Example 44, 4-{3-[1-benzhydryl-5-chloro-2-(2-{[(3,4-dichlorobenzyl)sulfonyl]amino}ethyl)-1H-indol-3-yl]propyl}benzoic acid]: in the data set on platelet aggregation, the “closure time of the PFA-100, ex vivo” value is 194 ± 49 s. For the same compound, the Cmax in data set [2] is approximately 500 ng/mL. `O=C(O)CCc1ccc(S(=O)(=O)CCc2c(CCNS(=O)(=O)Cc3ccccc3Cl)n(C(c3ccccc3)c3ccccc3)c3ccc(Cl)cc23)cc1` [Example 129, 3-[4-({2-[1-Benzhydryl-5-chloro-2-(2-{[(2-chloro-benzyl)sulfonyl]amino}ethyl)-1H-indol-3-yl]ethyl}sulfonyl)phenyl]propanoic acid] had an IC50 against cPLA2 of 130 nM. This counts as sub-micromolar. As for “4-{2-[1-benzhydryl-5-chloro-2-(2-{[(2,6-dimethylbenzyl)sulfonyl]amino}ethyl)-1H-indol-3-yl]ethoxy}benzoic acid [Example 279]”, the IC50 on cPLA2 came to 160 nM. In turn, `O=C(O)c1ccc(OCCc2c(CCNS(=O)(=O)Cc3ccccc3Cl)n(C(c3ccccc3)c3ccccc3)c3ccc(Cl)cc23)cc1F` [Example 297, 4-{2-[1-benzhydryl-5-chloro-2-(2-{[(2-chlorobenzyl)sulfonyl]amino}ethyl)-1H-indol-3-yl]ethoxy}-2-fluorobenzoic acid] returned a melting point of 132 to 135 °C. `O=C(O)c1ccc(OCCc2c(CCNS(=O)(=O)Cc3cnc(Cl)c(Cl)c3)n(C(c3ccccc3)c3ccccc3)c3ccc(Cl)cc23)cc1` [Example 76] gave an IC50 against cPLA2 of 400 nM.

Regarding `O=C(O)c1ccc(OCCc2c(CCNS(=O)(=O)Cc3c(Cl)cccc3Cl)n(C(c3ccccc3)c3ccccc3)c3ccc(Cl)cc23)cc1` [Example 73, 4-{2-[1-Benzhydryl-5-chloro-2-(2-{[(2-dichlorobenzyl)sulfonyl]amino}ethyl)-1H-indol-3-yl]ethoxy}benzoic acid], it took 300 nM to reach half-maximal inhibition on cPLA2 (IC50).

As to `Cc1cccc(C)c1CS(=O)(=O)NCCc1c(CCCc2ccc(C(=O)O)cc2)c2cc(Cl)ccc2n1C(c1ccccc1)c1ccccc1` [Example 52, 4-(3-[1-benzhydryl-5-chloro-2-(2-{[(2,6-dimethylbenzyl)-sulfonyl]amino}ethyl)-1H-indol-3-yl]propyl}benzoic acid], the “prolongation of PFA-100 closure time” value in data set [1] was “able to prolong the closure time to varying extents”. Moreover, in data set [1] (compared: Examples 44, 52 and aspirin), the “relative potency in PFA-100 closure time” value was “most potent compound”. Take `O=C(O)c1ccc(OCCc2c(CCNS(=O)(=O)Cc3ccc(Cl)c(Cl)c3)n(C(c3ccccc3)c3ccccc3)c3ccc(Cl)cc23)cc1F` [Example 296, 4-{2-[1-benzhydryl-5-chloro-2-(2-{[(3,4-dichlorobenzyl)sulfonyl]amino}ethyl)-1H-indol-3-yl]ethoxy}-2-fluorobenzoic acid]: the melting point was 117 to 119 °C. The compound “4-[2-(1-benzhydryl-5-chloro-2-{2-[({2-[(3R,5S)-3,5-dimethylmorpholin-4-yl]ethyl}sulfonyl)amino]ethyl}-1H-indol-3-yl)ethoxy]benzoic acid [Example 250]” registered a half-maximal inhibitory concentration (IC50) against cPLA2 of 2100 nM.
